# Toxic doses and inconclusive results are not listed.
# Test system: P388 leukemia ip, CD2F1 mice, survival T/C
# Assay: NCI In Vivo Anticancer Drug Screen. Data for tumor model P388 Leukemia (intraperitoneal) in CD2F1 (CDF1) mice
# Conditions: endpoint: median survival time, higher = longer survival
# How it was run: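 Mice carrying the transplanted tumor received test compound or vehicle. Survival was recorded in each group, and the value is the treated-group measurement divided by that of the vehicle-treated control group.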
# [1] = dose: 50.0 mg/kg/injection, schedule: Q01DX005 (ip), vehicle: Klucel (hydroxypropylcellulose) (HPC)
# [2] = dose: 100.0 mg/kg/injection, schedule: Q01DX005 (ip), vehicle: Klucel (hydroxypropylcellulose) (HPC)
# [3] = dose: 200.0 mg/kg/injection, schedule: Q01DX005 (ip), vehicle: Klucel (hydroxypropylcellulose) (HPC)
# [4] = dose: 12.5 mg/kg/injection, schedule: Q01DX009 (ip), vehicle: saline with Tween-80
# [5] = dose: 25.0 mg/kg/injection, schedule: Q01DX009 (ip), vehicle: saline with Tween-80
# [6] = dose: 50.0 mg/kg/injection, schedule: Q01DX005 (ip), vehicle: saline with Tween-80
# [7] = dose: 100.0 mg/kg/injection, schedule: Q01DX005 (ip), vehicle: saline with Tween-80
# [8] = dose: 200.0 mg/kg/injection, schedule: Q01DX005 (ip), vehicle: saline with Tween-80
smiles,measurement,setting,value
CCCCNC(=O)SCCC(=O)OC,T/C,[1],100 % of control
same,T/C,[2],99 % of control
same,T/C,[3],105 % of control
CC(=O)CC(=O)N(C)C,T/C,"dose: 50.0 mg/kg/injection, schedule: Q01DX009 (ip), vehicle: saline",100 % of control
same,T/C,"dose: 100.0 mg/kg/injection, schedule: Q01DX009 (ip), vehicle: saline",98 % of control
same,T/C,"dose: 200.0 mg/kg/injection, schedule: Q01DX009 (ip), vehicle: saline",99 % of control
same,T/C,"dose: 400.0 mg/kg/injection, schedule: Q01DX009 (ip), vehicle: saline",99 % of control
Cc1[nH]c2ccc(N(C)C)cc2c(=O)c1Cc1c(C)[nH]c2ccc(N(C)C)cc2c1=O,T/C,"dose: 60.0 mg/kg/injection, schedule: Q01DX005 (ip), vehicle: saline with Tween-80",92 % of control
same,T/C,"dose: 120.0 mg/kg/injection, schedule: Q01DX005 (ip), vehicle: saline with Tween-80",89 % of control
COc1cc(NC(=O)CCl)ccc(=O)c1,T/C,[4],95 % of control
same,T/C,[5],113 % of control
O=[N+]([O-])c1ccc(OS(=O)(=O)/C=C/c2ccccc2)cc1,T/C,"dose: 100.0 mg/kg/injection, schedule: Q01DX001 (ip), vehicle: Klucel (hydroxypropylcellulose) (HPC)",99 % of control
same,T/C,"dose: 200.0 mg/kg/injection, schedule: Q01DX001 (ip), vehicle: Klucel (hydroxypropylcellulose) (HPC)",100 % of control
same,T/C,"dose: 400.0 mg/kg/injection, schedule: Q01DX001 (ip), vehicle: Klucel (hydroxypropylcellulose) (HPC)",94 % of control
CC(C)CC1CC(=O)C(=O)C(CC(C)C)C1 (centres undefined),T/C,[1],95 % of control
same,T/C,[2],97 % of control
same,T/C,[3],110 % of control
COc1ccccc1C1OC2=C(Nc3ccc(Cl)cc3N2)C1=O (centres undefined),T/C,"dose: 7.5 mg/kg/injection, schedule: Q01DX005 (ip), vehicle: Klucel (hydroxypropylcellulose) (HPC)",100 % of control
same,T/C,"dose: 15.0 mg/kg/injection, schedule: Q01DX005 (ip), vehicle: Klucel (hydroxypropylcellulose) (HPC)",93 % of control
same,T/C,"dose: 30.0 mg/kg/injection, schedule: Q01DX005 (ip), vehicle: Klucel (hydroxypropylcellulose) (HPC)",87 % of control
COc1ccc(C(c2cc3c(cc2O)OCO3)N2CCCC2)c(OC)c1 (centres undefined),T/C,"dose: 60.0 mg/kg/injection, schedule: Q01DX005 (ip), vehicle: Klucel (hydroxypropylcellulose) (HPC)",111 % of control
same,T/C,"dose: 120.0 mg/kg/injection, schedule: Q01DX005 (ip), vehicle: Klucel (hydroxypropylcellulose) (HPC)",118 % of control
O=C(N=Nc1ccccc1)Nc1ccc(Cl)cc1,T/C,[6],100 % of control
same,T/C,[7],100 % of control
same,T/C,[8],90 % of control
O=C(O)c1c(CS(F)(F)(F)(F)F)cc(=O)oc1CS(F)(F)(F)(F)F,T/C,[6],106 % of control
same,T/C,[7],105 % of control
Oc1c(Cl)cc(Cl)cc1C1Nc2ccccc2-n2cccc21 (centres undefined),T/C,"dose: 6.25 mg/kg/injection, schedule: Q01DX009 (ip), vehicle: saline with Tween-80",91 % of control
same,T/C,[4],96 % of control
same,T/C,[5],91 % of control
O=C1C2C3CCC(O3)C2C(=O)N1CO (centres undefined),T/C,"dose: 60.0 mg/kg/injection, schedule: Q01DX005 (ip), vehicle: saline",112 % of control
same,T/C,"dose: 120.0 mg/kg/injection, schedule: Q01DX005 (ip), vehicle: saline",124 % of control
COc1ccc(/C=C(/C(=O)O)c2ccc(OC)cc2)cc1,T/C,"dose: 100.0 mg/kg/injection, schedule: Q04DX003 (ip), vehicle: other",100 % of control
same,T/C,"dose: 200.0 mg/kg/injection, schedule: Q04DX003 (ip), vehicle: other",95 % of control
same,T/C,"dose: 400.0 mg/kg/injection, schedule: Q04DX003 (ip), vehicle: other",100 % of control
C/C(=N\NC(=S)N1CCN(c2ccccn2)CC1)c1cccc2cccnc12,T/C,[6],103 % of control
same,T/C,[7],106 % of control
same,T/C,[8],110 % of control
CCCCNC(c1ccc(N(CC)CC)cc1)C(Br)(Br)Br (centres undefined),T/C,"dose: 50.0 mg/kg/injection, schedule: Q01DX005 (ip), vehicle: saline",114 % of control
same,T/C,"dose: 100.0 mg/kg/injection, schedule: Q01DX005 (ip), vehicle: saline",101 % of control
same,T/C,"dose: 200.0 mg/kg/injection, schedule: Q01DX005 (ip), vehicle: saline",107 % of control
CSC(=S)n1nc(C)c(N=Nc2ccc(F)cc2)c1C,T/C,"dose: 100.0 mg/kg/injection, schedule: Q01DX001 (ip), vehicle: saline with Tween-80",92 % of control
same,T/C,"dose: 200.0 mg/kg/injection, schedule: Q01DX001 (ip), vehicle: saline with Tween-80",92 % of control
same,T/C,"dose: 400.0 mg/kg/injection, schedule: Q01DX001 (ip), vehicle: saline with Tween-80",97 % of control

# Source: PubChem BioAssay AID330 (DTP/NCI, 2004)
